According to paper PMC9867837 (Cancer letters, 2022):
Like-named read-outs stand apart in the source and are kept apart here.

What was measured:
pYStat3C468A = biological target: T1, pYStat3C468A (Homo sapiens, UniProt P40763, C468A); assay: EMSA with purified mutant pYStat3C468A; format: biochemical
T1 construct: made in house; host or cells: E. coli BL21(DE3) TKB1 (inducible tyrosine kinase)
Description: This construct was used to generate the mutants, Stat3C328A, Stat3C426A, Stat3C468A, and Stat3C542S, as described in detail in Supplementary Information “Methods”.
The expression of un-phosphorylated and tyrosine phosphorylated His-tagged recombinant wtStat3 and mutant Stat3 proteins in BL21 (DE3) bacterial cells is described in detail in Supplementary Information “Methods”.
Given the MS data, we conducted site-directed mutagenesis analysis for the effects of Cys mutations (Cys-to-Ala or Cys-to-Ser mutations) on the inhibitory activities or potencies of the compounds. […] Purified, phosphorylated wild-type (wt)Stat3, and phosphorylated mutants, Stat3C328A, Stat3C426A, Stat3C468A, and Stat3C542S protein samples of equal amounts were pre-incubated with or without 3 μM H182 for 30 min at room temperature prior to incubation with the radiolabeled hSIE probe that binds Stat3 and subjecting to EMSA analysis. […] Focusing on the C426 and C468, we next conducted dose-response studies for effects of H182 on Stat3C426A and Stat3C468A. […] Equal proteins used in the DNA-binding assay/EMSA analysis are shown by SDS-PAGE Coomassie staining (Fig. 3B, lower). […]
(§1) In another case, the nuclear extract was pre-incubated with the radiolabeled probe for 30 min at 30 °C prior to incubation with increasing concentration of H182 at room temperature for 30 min and subjecting to EMSA analysis. Bands corresponding to Stats DNA- binding activities were scanned and quantified using ImageJ and plotted as a percentage of control (vehicle) against the concentration of the inhibitor, from which the IC50 values were derived . […]
(§2) These studies were performed as previously reported using the v-Src -transformed NIH3T3/v-Src fibroblasts [1 -5] . […] Luciferase activity was normalized to total protein concentration of cell lysate, which was determined by Bradford assay (Bio-Rad, Hercules, CA) . […]

[1] = test system: Stat3-dependent luciferase reporter, pLucTKS3; assay: Stat3-dependent luciferase reporter pLucTKS3 in NIH3T3/v-Src; format: cell-based, mouse; conditions: 1–3 μM H182 for 1 h
Experimental: These studies were performed as previously reported using the v-Src-transformed NIH3T3/v-Src fibroblasts. Details are presented in Supplementary Information, “Methods”.
We next evaluated the effects of the azetidine compound, H182 on Stat3 transcriptional activity. We used mouse fibroblasts transformed by the viral Src oncoprotein (NIH3T3/vSrc) that harbor constitutive Stat3 activation, which were transiently transfected with the Stat3-dependent luciferase reporter, pLucTKS3 [25, 30]. Transfected cells were treated with H182 and the luciferase activity was assayed in the cytosolic extract preparations of equal total protein [12, 13, 30]. […]
as §1, §2

[2] = biological target: T2, norepinephrine transporter (NET) (Homo sapiens, UniProt P23975); assay: CEREP SafetyScreen44, norepinephrine transporter; format: binding
T2 construct: Eurofins-CEREP (SafetyScreen44 panel)
T2 sequence (P23975 whole entry): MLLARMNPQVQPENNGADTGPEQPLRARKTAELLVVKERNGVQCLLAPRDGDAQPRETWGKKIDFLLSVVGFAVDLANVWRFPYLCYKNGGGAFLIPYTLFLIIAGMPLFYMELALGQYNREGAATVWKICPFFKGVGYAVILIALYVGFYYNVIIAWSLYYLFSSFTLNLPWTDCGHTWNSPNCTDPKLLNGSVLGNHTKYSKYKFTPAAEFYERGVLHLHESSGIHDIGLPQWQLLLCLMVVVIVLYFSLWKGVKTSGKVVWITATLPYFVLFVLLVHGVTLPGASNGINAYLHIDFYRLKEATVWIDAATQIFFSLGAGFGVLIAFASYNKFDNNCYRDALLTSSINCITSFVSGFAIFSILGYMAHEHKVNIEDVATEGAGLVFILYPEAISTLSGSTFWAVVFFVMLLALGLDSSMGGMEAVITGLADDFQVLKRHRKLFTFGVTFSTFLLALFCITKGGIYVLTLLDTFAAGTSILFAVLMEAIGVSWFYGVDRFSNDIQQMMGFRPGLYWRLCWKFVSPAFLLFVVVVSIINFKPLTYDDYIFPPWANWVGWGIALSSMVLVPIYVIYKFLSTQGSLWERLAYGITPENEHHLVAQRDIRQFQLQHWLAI

[3] = biological target: T3, glucocorticoid receptor (GR) (Homo sapiens, UniProt P04150); assay: CEREP SafetyScreen44, glucocorticoid receptor; format: binding
T3 construct: Eurofins-CEREP (SafetyScreen44 panel)
T3 sequence (P04150 whole entry): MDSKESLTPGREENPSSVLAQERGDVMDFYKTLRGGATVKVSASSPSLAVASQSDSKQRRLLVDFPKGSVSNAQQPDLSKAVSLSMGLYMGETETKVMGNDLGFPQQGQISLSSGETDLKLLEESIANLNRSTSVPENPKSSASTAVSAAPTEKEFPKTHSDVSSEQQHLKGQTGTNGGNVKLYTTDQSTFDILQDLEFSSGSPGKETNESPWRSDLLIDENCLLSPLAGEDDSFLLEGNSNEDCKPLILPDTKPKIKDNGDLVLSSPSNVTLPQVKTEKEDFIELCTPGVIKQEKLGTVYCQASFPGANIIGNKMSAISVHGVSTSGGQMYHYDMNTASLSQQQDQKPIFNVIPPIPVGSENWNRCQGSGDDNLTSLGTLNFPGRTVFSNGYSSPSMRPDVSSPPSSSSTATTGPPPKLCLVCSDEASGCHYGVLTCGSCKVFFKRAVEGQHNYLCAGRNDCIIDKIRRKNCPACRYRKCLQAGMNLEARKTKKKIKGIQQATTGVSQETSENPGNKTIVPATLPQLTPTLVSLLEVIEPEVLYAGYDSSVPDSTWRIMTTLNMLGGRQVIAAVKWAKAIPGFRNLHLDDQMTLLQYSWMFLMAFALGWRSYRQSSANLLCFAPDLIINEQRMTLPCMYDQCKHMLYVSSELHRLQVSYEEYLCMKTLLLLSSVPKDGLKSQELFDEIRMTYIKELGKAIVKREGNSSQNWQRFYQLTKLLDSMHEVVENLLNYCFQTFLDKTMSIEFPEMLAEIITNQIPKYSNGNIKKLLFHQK

[4] = biological target: T4, Stat1:Stat3 DNA-binding activity (Mus musculus, UniProt P42227); assay: EMSA of Stat1:Stat3 DNA-binding activity in nuclear extracts of EGF-stimulated NIH3T3/hEGFR; format: biochemical; conditions: Fig. 1C, hSIE probe, 30 min
T4 construct: endogenous in cells; host or cells: EGF-stimulated NIH3T3/hEGFR fibroblasts (nuclear extract)
T4 sequence (P42227 2-770 limits assumed): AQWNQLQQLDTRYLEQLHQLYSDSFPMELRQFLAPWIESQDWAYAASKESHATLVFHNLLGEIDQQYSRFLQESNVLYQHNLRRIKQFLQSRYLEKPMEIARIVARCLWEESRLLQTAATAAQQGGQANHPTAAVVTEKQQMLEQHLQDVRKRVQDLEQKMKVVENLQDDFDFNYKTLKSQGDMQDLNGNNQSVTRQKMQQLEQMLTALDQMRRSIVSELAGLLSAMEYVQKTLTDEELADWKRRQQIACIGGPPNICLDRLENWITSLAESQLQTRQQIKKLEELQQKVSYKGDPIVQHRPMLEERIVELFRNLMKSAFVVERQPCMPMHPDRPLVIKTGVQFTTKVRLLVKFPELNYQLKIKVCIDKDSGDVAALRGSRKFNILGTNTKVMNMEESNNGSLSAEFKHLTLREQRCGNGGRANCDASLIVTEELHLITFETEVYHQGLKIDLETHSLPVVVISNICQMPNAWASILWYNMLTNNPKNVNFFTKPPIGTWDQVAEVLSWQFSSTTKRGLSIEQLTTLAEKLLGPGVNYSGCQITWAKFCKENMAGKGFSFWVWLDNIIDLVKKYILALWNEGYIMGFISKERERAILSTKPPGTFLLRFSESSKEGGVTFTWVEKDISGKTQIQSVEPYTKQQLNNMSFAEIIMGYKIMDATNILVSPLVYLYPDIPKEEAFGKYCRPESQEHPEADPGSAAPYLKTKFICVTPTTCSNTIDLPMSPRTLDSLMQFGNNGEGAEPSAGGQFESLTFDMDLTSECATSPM
T4 sequence (P42225 2-749 partner limits assumed): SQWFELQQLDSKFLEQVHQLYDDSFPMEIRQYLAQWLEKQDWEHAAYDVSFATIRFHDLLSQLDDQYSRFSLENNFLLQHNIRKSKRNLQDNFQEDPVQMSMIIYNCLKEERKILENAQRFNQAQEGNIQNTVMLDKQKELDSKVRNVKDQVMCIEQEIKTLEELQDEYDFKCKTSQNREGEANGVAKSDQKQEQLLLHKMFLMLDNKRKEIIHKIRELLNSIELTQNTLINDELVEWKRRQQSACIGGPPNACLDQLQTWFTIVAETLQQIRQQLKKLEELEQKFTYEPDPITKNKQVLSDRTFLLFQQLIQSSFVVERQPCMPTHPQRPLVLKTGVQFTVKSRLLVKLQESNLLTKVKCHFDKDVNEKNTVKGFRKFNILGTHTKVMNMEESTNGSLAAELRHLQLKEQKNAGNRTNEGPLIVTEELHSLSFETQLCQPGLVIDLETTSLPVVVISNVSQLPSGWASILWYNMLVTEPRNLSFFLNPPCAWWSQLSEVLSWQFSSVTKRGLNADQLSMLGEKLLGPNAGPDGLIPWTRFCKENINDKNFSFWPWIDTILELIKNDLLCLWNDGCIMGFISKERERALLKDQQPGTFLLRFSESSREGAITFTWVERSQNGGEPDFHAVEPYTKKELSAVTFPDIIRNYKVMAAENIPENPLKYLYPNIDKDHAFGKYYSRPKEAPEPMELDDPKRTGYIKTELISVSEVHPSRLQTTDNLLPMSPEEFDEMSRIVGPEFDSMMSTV
Experimental: (§3) Details are presented in Supplementary Information, “Methods”. […]
(§4) min, prior to incubation with the radiolabeled probe for 30 min at 30 °C and subjecting to EMSA analysis.
(§5) In another case, the nuclear extract was pre-incubated with the radiolabeled probe for 30 min at 30 °C prior to incubation with increasing concentration of H182 at room temperature for 30 min and subjecting to EMSA analysis. Bands corresponding to Stats DNA- binding activities were scanned and quantified using ImageJ and plotted as a percentage of control (vehicle) against the concentration of the inhibitor, from which the IC50 values were derived .

[5] = test system: Stat3-independent pLucSRE luciferase reporter; assay: Stat3-independent luciferase reporter pLucSRE in NIH3T3/v-Src; format: cell-based, mouse; conditions: 1–3 μM H182 for 1 h
[6] = biological target: T5, Stat3:Stat3 DNA-binding activity (Mus musculus, UniProt P42227); assay: EMSA of Stat3:Stat3 DNA-binding activity in nuclear extracts; format: biochemical; conditions: for Stat3:Stat3 % of Con, pre-formed Stat3:DNA complex: extract pre-incubated with hSIE probe 30 min
T5 construct: endogenous in cells; host or cells: NIH3T3/v-Src fibroblasts; EGF-stimulated NIH3T3/hEGFR fibroblasts (nuclear extracts)
T5 sequence (P42227 2-770 limits assumed): as the sequence (P42227 2-770 limits assumed) above
Experimental: as §3, §4, §5

[7] = SafetyScreen44 follow-up dose-response
[8] = 2 μM H182, incubation time 3 min
[9] = 2 μM H182, incubation time 10 min
[10] = 2 μM H182, incubation time 30 min
[11] = 2 μM H182, incubation time 60 min

T1 sequence (P40763 127-711 C468A): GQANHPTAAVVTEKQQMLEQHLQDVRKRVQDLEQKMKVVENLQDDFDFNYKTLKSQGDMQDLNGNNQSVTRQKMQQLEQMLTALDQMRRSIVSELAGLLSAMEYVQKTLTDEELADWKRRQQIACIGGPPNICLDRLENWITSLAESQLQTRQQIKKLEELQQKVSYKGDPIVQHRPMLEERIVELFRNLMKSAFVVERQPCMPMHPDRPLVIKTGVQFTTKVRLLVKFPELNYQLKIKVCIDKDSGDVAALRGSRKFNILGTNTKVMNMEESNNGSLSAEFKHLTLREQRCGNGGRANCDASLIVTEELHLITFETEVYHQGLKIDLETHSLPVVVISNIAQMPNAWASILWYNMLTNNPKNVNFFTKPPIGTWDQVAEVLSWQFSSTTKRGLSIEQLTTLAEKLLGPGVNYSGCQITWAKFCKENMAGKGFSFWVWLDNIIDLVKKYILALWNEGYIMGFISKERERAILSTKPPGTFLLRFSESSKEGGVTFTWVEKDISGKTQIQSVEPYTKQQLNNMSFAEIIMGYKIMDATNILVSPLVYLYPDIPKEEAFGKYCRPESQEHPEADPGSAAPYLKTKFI

O=C([C@H]1CCN1S(=O)(=O)c1c(F)c(F)c(F)c(F)c1F)N(Cc1ccc(C2CCCCC2)cn1)c1ccc2c(=O)[nH]ncc2c1 [Compound H182] was tested, and the “Effect on DNA-binding activity of pYStat3C468A” value (pYStat3C468A; 3 μM H182, 30 min) was “unaffected”, the “Effect on pYStat3C468A activity” value (pYStat3C468A; 10 μM H182) was “no effect” and the IC50 (pYStat3C468A; EMSA, 0–50 μM H182, 30 min) was 40 µM. The “Effect on Stat3-driven luciferase reporter expression (pLucTKS3)” value [1] was “dose-dependent inhibition”, the inhibition at 10 µM ([2]; 10 μM H182) was greater than 80% and the IC50 [2, 7] was 400 nM. It also gave an inhibition at 10 µM ([3]; 10 μM H182) greater than 80%, an IC50 [3, 7] of 110 nM and an IC50 [4] of 3.4 µM. The “Effect on pLucSRE luciferase reporter expression” value [5] was “no changes”, the “Stat3:Stat3 Intensity (% of Con)” value ([6]; 2 μM H182, incubation time 0 min) was 100 % of Con and the “Stat3:Stat3 Intensity (% of Con)” value [6, 8] was 84 % of Con. For the same compound, the inhibition at 2 µM [6, 8] was 16%, the “Stat3:Stat3 Intensity (% of Con)” value [6, 9] was 65 % of Con and the inhibition at 2 µM [6, 9] was 35%. The “Stat3:Stat3 Intensity (% of Con)” value [6, 10] was 14 % of Con, the inhibition at 2 µM [6, 10] was 86% and the “Stat3:Stat3 Intensity (% of Con)” value [6, 11] was 0.1 % of Con. For the same compound, the inhibition at 2 µM [6, 11] was 99.9%, the IC50 ([6]; EMSA, NIH3T3/v-Src nuclear extracts, 30-min incubation at room temperature before hSIE probe, read-out: Stat3:Stat3 IC50) was 660 ± 100 nM and the IC50 ([6]; EMSA, incubation time 10 min before hSIE probe, read-out: Stat3:Stat3 IC50) was 1470 nM. For the same compound, the IC50 ([6]; EMSA, incubation time 60 min before hSIE probe, read-out: Stat3:Stat3 IC50) was 380 nM, the IC50 ([6]; Fig. 1C, extracts of EGF-stimulated NIH3T3/hEGFR, hSIE probe, 30 min, read-out: IC50 Stat3:Stat3) was 700 nM and the “Stat3:Stat3 % of Con, pre-formed Stat3:DNA complex” value (“Stat3:Stat3 % of Con” for short) ([6]; then 1 μM H182 30 min) was 101 % of Con. For the same compound, the “Stat3:Stat3 % of Con” value ([6]; then 3 μM H182 30 min) was 101 % of Con, the “Stat3:Stat3 % of Con” value ([6]; then 10 μM H182 30 min) was 100 % of Con and the “Stat3:Stat3 % of Con” value ([6]; then 30 μM H182 30 min) was 98 % of Con. For the same compound, the “Stat3:Stat3 % of Con” value ([6]; then 100 μM H182 30 min) was 86 % of Con, the IC50 ([6]; range over the named compounds and incubation times, read-out: IC50 Stat3 DNA-binding activity in vitro (summary range)) was 380 to 980 nM and the “Inhibition of the pre-formed Stat3:DNA complex” value ([6]; up to 100 μM H182) was “unable to inhibit the pre-formed Stat3:DNA complex”.
